{
  "source": "patent US11466027B2",
  "about": "“Modulators of the NMDA receptor” (H. Lundbeck A/S, priority 2019, dated 2022)",
  "key": {"[1]": {"experiment": "In vivo exposure (brain disposition) after intravenous bolus injection", "set-up": "species or system male Sprague Dawley rats", "conditions": "male, Sprague-Dawley, rat, 2 mg/kg intravenous bolus, 30 min post dose", "description": "Brain disposition of test compound was evaluated in male Sprague Dawley rats (standard body weight range). Briefly, discrete (nominal dose: 2 mg/kg, 2 ml/kg) or cassetted (nominal dose: 1 mg/kg/compound, 2 ml/kg) test compounds were administered by intravenous bolus injection (formulated in 10% hydroxypropyl-β-cyclodextrin or 10-20% Captisol, pH=3).\nSerial blood samples were collected from a lateral tail vein at designated time points (n=3 per time point) then rats were put under deep isoflurane induced anesthesia prior to removal of brains (n=3 per time point). Blood was collected into K3-EDTA-coated tubes and the samples were gently turned upside-down to ensure a homogenous sample. The tubes were centrifuged at 3300×g for 10 min. at max 4° C. and plasma samples were transferred to Micronic tubes. […]\nSeven calibration standards and three QC samples were prepared in plasma and brain homogenate, respectively, in the concentration range 10-10000 ng/mL. […] Study samples with expected concentration above upper limit of quantification were diluted with blank matrix. […]\nSamples were analyzed using an AB Sciex API4000 triple quadrupole (TQ) mass spectrometer operated in positive and negative electrospray ionization and MS/MS mode (multiple reaction monitoring, MRM). […] Quantification was performed by linear regression, 1/x2 weighting."}, "[2]": {"system": "High Frequency Oscillations (HFO) in the nucleus accumbens", "experiment": "Resting state electroencephalography (rsEEG) in rats", "format": "in vivo", "conditions": "rat, 20 mg/kg, vs 10% captisol, FIG. 1", "description": "On the day of surgery, rats (270-300 g) were anesthetized with a 0.25 ml/100 g subcutaneous (SC) injection of 1:1 hypnorm/Dormicum and mounted in a stereotaxic frame (David Kopf Instruments, Tujunga, Calif., USA) with blunt ear bars. Marcain (0.2 ml SC) was injected under the scalp, and gel (Neutral Opthta Eye Gel) put on the eyes to prevent the mucous membrane drying out. Holes were burred in the skull to allow for placement of three depth electrodes (E363-series; PlasticsOne, Roanoke, Va., USA) in medial prefrontal cortex (mPFC) (AP: 3.0 mm from the bregma suture, ML: −0.7 mm from the sagittal suture and DV: 3.0 mm from the dura), Nucleus accumbens (NAc): (AP+1.6 mm from the bregma suture, ML: −1.0 mm from the sagittal suture, DV: −6.7 mm from the dura) and thalamus (AP: −2.8 mm from the bregma suture, ML: +0.7 mm from the sagittal suture and DV: 4.4 mm from the dura) and three screw electrodes above the auditory cortex (A1) (AP: −4.8 mm from the bregma suture, ML: +6.4 mm from the sagittal suture), a reference electrode (AP: +8.0 mm and ML: −2.0 mm), and a ground electrode (AP: −5 mm, ML: +5 mm). […] Animal bodyweights were recorded daily. […]\nRats were handled daily and habituated to recording box the week before recording sessions. […] The analysis of the locomotor behaviour was based on the recorded accelerometer signal. […]"}, "[3]": {"experiment": "Microdialysis studies in rats (ventral hippocampus)", "format": "in vivo, Male Sprague-Dawley rats", "conditions": "30 mg/kg subcutaneously, FIG. 2", "description": "Male Sprague-Dawley rats, initially weighing 275-300 g, were used. The animals were housed under a 12-hr light/dark cycle under controlled conditions for regular in-door temperature (21±2° C.) and humidity (55±5%) with food and tap water available ad libitum.\nRats were anaesthetised with hypnorm/dormicum (2 ml/kg) and intracerebral guide cannulas.\n(CMA/12) were stereotaxically implanted into the brain, aiming to position the dialysis probe tip in the ventral hippocampus (co-ordinates: 5.6 mm posterior to bregma, lateral −4.8 mm, 7.0 mm ventral to dura. Anchor screws and acrylic cement were used for fixation of the guide cannulas. The body temperature of the animals was monitored by rectal probe and maintained at 37° C. The rats were allowed to recover from surgery for 2 days, housed singly in cages.\nOn the day of the experiment a microdialysis probe (CMA/12, 0.5 mm diameter, 3 mm length) was inserted through the guide cannula. The probe was connected via a dual channel swivel to a microinjection pump. Perfusion of the microdialysis probe with filtered Ringer solution (145 mm NaCl, 3 mM KCl, 1 mM MgCl2, 1.2 mM CaCl2) was begun shortly before insertion of the probe into the brain and continued for the duration of the experiment at a constant flow rate of 1 μl/min. After 180 min of stabilisation, the experiments were initiated. […]"}, "[4]": {"biological_target": "NR1s1s2 (ligand binding domains of the NMDA receptor), glycine site (Rattus norvegicus, UniProt P35439)", "experiment": "Scintillation Proximity Assay (SPA), displacement of [3H]-MDL-105,519", "conditions": "radioligand used in SPA", "source_text": "Scintillation Proximity Assay (SPA):\nNormalized data are used to calculate Ki values."}},
  "note": "Where two headings read alike, the source gives them in different places.",
  "data": [
    {"smiles": "Cc1ccnc2cc(C(=O)NC[C@@H](N)C(=O)O)sc12", "note": "[Compound 1e, (R)-2-amino-3-[(7-methylthieno[3,2-b]pyridine-2-carbonyl)amino]propanoic acid]", "values": [
      {"measurement": "concentration at 30 min", "setting": "[1]; brain, read-out: Total Brain concentration (ng/mL) 30 min post dose", "result": 8.4, "unit": "ng/mL"},
      {"measurement": "concentration at 30 min", "setting": "[1]; plasma, read-out: Total Plasma concentration (ng/mL) 30 min post dose", "result": 270, "unit": "ng/mL"},
      {"measurement": "Effect in rsEEG (High Frequency Oscillations in the nucleus accumbens) compared to vehicle", "setting": "[2]", "result": "clear effect"},
      {"measurement": "Extracellular levels in the rat ventral hippocampus after systemic administration", "setting": "[3]", "result": "considerable extracellular levels"}
    ]},
    {"smiles": "O=C(O)C(=Cc1c(C(=O)O)[nH]c2cc(Cl)cc(Cl)c12)c1ccccc1", "note": "[[^3H]-MDL-105,519]", "values": [
      {"measurement": "Kd", "setting": "[4]", "result": 1.3, "unit": "nM"}
    ]}
  ]
}
